In ChEMBL document CHEMBL4421720, “Tetrahydropyridopyrazines modulators of gpr6” (2016):

Target: G-protein coupled receptor 6 (Homo sapiens, UniProt P46095)
Assay: Modulation activity at GPR6 receptor (unknown origin) expressed in CHO-K1 cells assessed as inhibition of constitutive cAMP activity incubated for 45 mins by Perkin Elmer Lance HTRF Ultrac-AMP assay
Assay type: functional, cell-based

Chain of G-protein coupled receptor 6 (P46095 whole entry): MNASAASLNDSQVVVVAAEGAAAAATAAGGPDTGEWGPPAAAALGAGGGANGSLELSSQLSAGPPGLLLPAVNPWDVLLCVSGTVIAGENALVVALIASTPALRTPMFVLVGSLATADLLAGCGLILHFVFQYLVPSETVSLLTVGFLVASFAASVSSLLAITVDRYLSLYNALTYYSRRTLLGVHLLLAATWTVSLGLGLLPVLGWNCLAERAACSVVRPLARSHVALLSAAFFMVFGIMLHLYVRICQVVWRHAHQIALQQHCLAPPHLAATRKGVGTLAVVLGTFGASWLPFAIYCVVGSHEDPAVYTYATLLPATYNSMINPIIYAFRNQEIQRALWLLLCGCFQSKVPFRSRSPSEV

| IC50 (cho-k1) | IC50 | SMILES |
| --- | --- | --- |
| 13.7 µM | – | CC(C)Nc1nc2c(nc1N1CCC(C(=O)c3cc(Cl)ccc3F)CC1)CCN(C)C2 |
| – | 13.8 µM | CC(=O)N1CCc2nc(N3CCC(C(=O)c4cc(Cl)ccc4F)CC3)c(NC(C)C)nc2C1 |
